For assay [1], the target named is T1, MAGL (Mus musculus (Mouse), UniProt O35678). Nature of the assay: Mouse brain proteomes from inhibitor treated mice (oral gavage, brain MAGL activity 4 h after administration). It is filed as in vivo. As to conditions: 5 mg/kg oral gavage. The method, then:
Preparation of Mouse Brain Proteomes from Inhibitor Treated Mice.
Inhibitors were administered to wild-type C57B1/6J by oral gavage in a vehicle of polyethylene glycol.

Assay [2] addresses T1, MAGL. Nature of the assay: In vitro competitive activity-based protein profiling, mouse brain proteome. The settings on record: for inhibition at 1 µM: mouse. The format is biochemical.
Assay [3] has as its target MAGL (Homo sapiens (Human), UniProt Q99685). Nature of the assay: In vitro competitive activity-based protein profiling (gel-based, FP-Rh or HT-01 probe). It is filed as biochemical. The settings on record: for IC50: read-out: MAGL Human PC3 (IC50). As for the experimental part:
In Vitro Competitive Activity-Based Protein Profiling.
Proteomes (human prefrontal cortex or cell membrane fractions) (50 μL, 1.0 mg/mL total protein concentration) were preincubated with varying concentrations of inhibitors at 37° C. After 30 min, FP-Rh or HT-01 (1.0 μL, 50 μM in DMSO) was added and the mixture was incubated for another 30 min at room temperature. Reactions were quenched with SDS loading buffer (15 μL—4×) and run on SDS-PAGE.

Setting [4] is: human PC3, read-out: MAGL % Inhibition at 1 μM (human PC3).
Setting [5] is: human PFC (prefrontal cortex), read-out: MAGL % Inhibition at 1 μM (human PFC).

Read-outs that look alike come from different tables or passages of the source.

A word on the inhibition: it is the drop in the measured response relative to a control, in per cent. The IC50 is the concentration needed to halve the response being measured.

T1 sequence (O35678 whole entry): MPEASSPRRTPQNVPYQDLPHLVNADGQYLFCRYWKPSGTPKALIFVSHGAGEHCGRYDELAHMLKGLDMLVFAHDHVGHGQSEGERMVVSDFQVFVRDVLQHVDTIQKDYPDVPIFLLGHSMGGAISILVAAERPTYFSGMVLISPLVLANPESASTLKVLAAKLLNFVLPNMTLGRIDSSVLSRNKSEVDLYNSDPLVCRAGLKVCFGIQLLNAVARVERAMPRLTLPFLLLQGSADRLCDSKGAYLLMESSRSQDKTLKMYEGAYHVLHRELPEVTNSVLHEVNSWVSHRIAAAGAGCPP
MAGL (Homo sapiens (Human), UniProt Q99685), sequence (Q99685 whole entry): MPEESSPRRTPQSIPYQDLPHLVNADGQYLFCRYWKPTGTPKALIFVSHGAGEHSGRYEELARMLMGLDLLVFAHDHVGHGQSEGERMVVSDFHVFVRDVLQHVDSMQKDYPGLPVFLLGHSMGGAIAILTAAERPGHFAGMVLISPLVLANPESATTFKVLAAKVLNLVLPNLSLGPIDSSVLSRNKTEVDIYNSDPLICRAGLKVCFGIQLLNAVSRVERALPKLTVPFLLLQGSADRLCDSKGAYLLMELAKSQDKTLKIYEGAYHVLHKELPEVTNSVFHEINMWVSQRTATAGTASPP

With `O=C(OC(C(F)(F)F)C(F)(F)F)N1CCC2(CCCN2C(=O)C2(c3cccnn3)CC2)CC1` [Example 179, 1,1,1,3,3,3-Hexafluoropropan-2-yl 1-(1-(pyridazin-3-yl)cyclopropane-1-carbonyl)-1,8-diazaspiro [4.5]decane-8-carboxylate], at MAGL [1], the “MAGL % Inhibition at 5 mg/kg (Mouse)” value was “## (% inhibition is less than 75% and greater than 25%)”. Also, the inhibition at 1 µM on MAGL [2], on MAGL [3] (setting [4]) and on MAGL [3] (setting [5]) was above 75% throughout. Further, the IC50 on MAGL [3] (human PC3) is below 0.1 µM.

For `O=C(OC(C(F)(F)F)C(F)(F)F)N1CCC2(CCCN2C(=O)C2(c3ncc(F)cn3)CC2)CC1` [Example 180, 1,1,1,3,3,3-Hexafluoropropan-2-yl 1-(1-(5-fluoropyrimidin-2-yl)cyclopropane-1-carbonyl)-1,8-diazaspiro[4.5] decane-8-carboxylate], the “MAGL % Inhibition at 5 mg/kg (Mouse)” value on MAGL [1] is “### (% inhibition is greater than or equal to 75%)”. Besides, the inhibition at 1 µM at MAGL [2], on MAGL [3] (setting [4]) and on MAGL [3] (setting [5]) was above 75% throughout. The IC50 on MAGL [3] (human PC3) is below 0.1 µM.

Turning to `CC1(NC(=O)c2cn3c(n2)CN(C(=O)C2(C)CC2)CC3)CCN(C(=O)OC(C(F)(F)F)C(F)(F)F)CC1` [Example 190, 1,1,1,3,3,3-Hexafluoropropan-2-yl 4-methyl-4-(7-(1-methylcyclopropane-1-carbonyl)-5,6,7,8-tetrahydroimidazo[1,2-a]pyrazine-2-carboxamido) piperidine-1-carboxylate], the “MAGL % Inhibition at 5 mg/kg (Mouse)” value at MAGL [1] is recorded as “# (% inhibition less or equal to 25%)”. Besides, the inhibition at 1 µM on MAGL [2] and at MAGL [3] (setting [4]) was above 75% in each case. The IC50 on MAGL [3] (human PC3) was below 0.1 µM.

In the case of `CC1(NC(=O)c2cn3c(n2)CN(C(=O)C(C)(C)C)CC3)CCN(C(=O)OC(C(F)(F)F)C(F)(F)F)CC1` [Example 191, 1,1,1,3,3,3-Hexafluoropropan-2-yl 4-methyl-4-(7-pivaloyl-5,6,7,8-tetrahydroimidazo[1,2-a]pyrazine-2-carboxamido) piperidine-1-carboxylate], the “MAGL % Inhibition at 5 mg/kg (Mouse)” value at MAGL [1] is recorded as “# (% inhibition less or equal to 25%)”. The inhibition at 1 µM on MAGL [2] and at MAGL [3] (setting [4]) was above 75% throughout. For the same compound, the IC50 at MAGL [3] (human PC3) is below 0.1 µM.

As to `CC(C)Oc1cnc(C2(C(=O)N3CCCC34CCN(C(=O)OC(C(F)(F)F)C(F)(F)F)CC4)CC2)nc1` [Example 194, 1,1,1,3,3,3-Hexafluoropropan-2-yl 1-(1-(5-isopropoxypyrimidin-2-yl)cyclopropane-1-carbonyl)-1,8-diazaspiro [4.5]decane-8-carboxylate], at MAGL [1], the “MAGL % Inhibition at 5 mg/kg (Mouse)” value is “### (% inhibition is greater than or equal to 75%)”. In addition, the inhibition at 1 µM at MAGL [2], at MAGL [3] (setting [4]) and on MAGL [3] (setting [5]) was above 75% throughout. Also, the IC50 on MAGL [3] (human PC3) is below 0.1 µM.

Consider `COc1nccc(C2(C(=O)N3CCCC34CCN(C(=O)OC(C(F)(F)F)C(F)(F)F)CC4)CC2)n1` [Example 200, 1,1,1,3,3,3-Hexafluoropropan-2-yl 1-(1-(2-methoxypyrimidin-4-yl)cyclopropane-1-carbonyl)-1,8-diazaspiro [4.5]decane-8-carboxylate], for which the “MAGL % Inhibition at 5 mg/kg (Mouse)” value on MAGL [1] is given as “### (% inhibition is greater than or equal to 75%)”. Moreover, the inhibition at 1 µM at MAGL [2], at MAGL [3] (setting [4]) and on MAGL [3] (setting [5]) was above 75% each time. Further, the IC50 on MAGL [3] (human PC3) is below 0.1 µM.

Turning to `CC1(NC(=O)c2nnc3n2CCN(C2CC2)C3)CCN(C(=O)OC(C(F)(F)F)C(F)(F)F)CC1` [Example 204, 1,1,1,3,3,3-Hexafluoropropan-2-yl 4-(7-cyclopropyl-5,6,7,8-tetrahydro-[1,2,4]triazolo[4,3-a]pyrazine-3-carboxamido)-4-methylpiperidine-1-carboxylate], on MAGL [1], the “MAGL % Inhibition at 5 mg/kg (Mouse)” value is “### (% inhibition is greater than or equal to 75%)”. For the same compound, the inhibition at 1 µM at MAGL [2], on MAGL [3] (setting [4]) and at MAGL [3] (setting [5]) was above 75% each time. For the same compound, the IC50 at MAGL [3] (human PC3) was below 0.1 µM.

`CC(C)(O)CN1CCn2c(nnc2C(=O)NC2(C)CCN(C(=O)OC(C(F)(F)F)C(F)(F)F)CC2)C1` [Example 206, 1,1,1,3,3,3-Hexafluoropropan-2-yl 4-(7-(2-hydroxy-2-methylpropyl)-5,6,7,8-tetrahydro-[1,2,4]triazolo[4,3-a]pyrazine-3-carboxamido)-4-methylpiperidine-1-carboxylate]: the “MAGL % Inhibition at 5 mg/kg (Mouse)” value at MAGL [1] was “### (% inhibition is greater than or equal to 75%)”. Also, the inhibition at 1 µM at MAGL [2], at MAGL [3] (setting [4]) and at MAGL [3] (setting [5]) was above 75% each time. In addition, on MAGL [3] (human PC3), the IC50 is below 0.1 µM.

In the case of `CC1(NC(=O)c2nnc3n2CCN(C2COC2)C3)CCN(C(=O)OC(C(F)(F)F)C(F)(F)F)CC1` [Example 207, 1,1,1,3,3,3-Hexafluoropropan-2-yl 4-methyl-4-(7-(oxetan-3-yl)-5,6,7,8-tetrahydro-[1,2,4]triazolo [4,3-a]pyrazine-3-carboxamido) piperidine-1-carboxylate], the “MAGL % Inhibition at 5 mg/kg (Mouse)” value at MAGL [1] is on record as “### (% inhibition is greater than or equal to 75%)”. Also, the inhibition at 1 µM on MAGL [2], at MAGL [3] (setting [4]) and on MAGL [3] (setting [5]) was above 75% each time. Moreover, the IC50 at MAGL [3] (human PC3) is below 0.1 µM.

With `CC1(NC(=O)c2nnc3n2CCN(C2CCOC2)C3)CCN(C(=O)OC(C(F)(F)F)C(F)(F)F)CC1` (stereo not drawn) [Example 208, 1,1,1,3,3,3-Hexafluoropropan-2-yl 4-methyl-4-(7-(THF-3-yl)-5,6,7,8-tetrahydro-[1,2,4]triazolo [4,3-a]pyrazine-3-carboxamido) piperidine-1-carboxylate], the “MAGL % Inhibition at 5 mg/kg (Mouse)” value on MAGL [1] is given as “### (% inhibition is greater than or equal to 75%)”. In addition, the inhibition at 1 µM at MAGL [2], at MAGL [3] (setting [4]) and at MAGL [3] (setting [5]) was above 75% each time. Also, on MAGL [3] (human PC3), the 50% inhibitory concentration (IC50) was below 0.1 µM.

Regarding `CC1(NC(=O)c2nnc3n2CCN(C2CCOCC2)C3)CCN(C(=O)OC(C(F)(F)F)C(F)(F)F)CC1` [Example 209, 1,1,1,3,3,3-Hexafluoropropan-2-yl 4-methyl-4-(7-(tetrahydro-2H-pyran-4-yl)-5,6,7,8-tetrahydro-[1,2,4]triazolo [4,3-a]pyrazine-3-carboxamido) piperidine-1-carboxylate], the “MAGL % Inhibition at 5 mg/kg (Mouse)” value on MAGL [1] is “### (% inhibition is greater than or equal to 75%)”. The inhibition at 1 µM on MAGL [2], at MAGL [3] (setting [4]) and at MAGL [3] (setting [5]) was above 75% throughout. For the same compound, at MAGL [3] (human PC3), the IC50 was below 0.1 µM.

Take `CC(C)n1cc(CN2CCCC23CCN(C(=O)OC(C(F)(F)F)C(F)(F)F)CC3)c(-c2ccccc2F)n1` [Example 221, 1,1,1,3,3,3-Hexafluoropropan-2-yl 1-((3-(2-fluorophenyl)-1-isopropyl-1H-pyrazol-4-yl)methyl)-1,8-diazaspiro[4.5] decane-8-carboxylate]: the “MAGL % Inhibition at 5 mg/kg (Mouse)” value at MAGL [1] is reported as “### (% inhibition is greater than or equal to 75%)”. Further, the inhibition at 1 µM on MAGL [2] is above 75%. Further, the IC50 at MAGL [2] (mouse brain) and at MAGL [3] (human PC3) was below 0.1 µM throughout.

Values taken from patent US11142526B2, “Spirocycle compounds and methods of making and using same” (H. Lundbeck A/S, priority 2017, dated 2021).
